Data as given in US6440453B1, “Transdermal systems for release of 5-HT3 receptor antagonists and their use in anti-emetic treatment” (Novosis Pharma AG, priority 1999, dated 2002).
Counter-ions that a name gives are not always drawn. Like-named read-outs stand apart in the source and are kept apart here. Blank lines part the entries; values can stand above or below the compound they belong to.

Experiments:
[1] = humans; cited from earlier work
[2] = after oral administration; cited from earlier work
[3] = healthy test persons, single dose 0.15 mg/kg i.v., cited from earlier work
nausea and emesis = conditions: cited from earlier work
[4] = in vitro skin permeation through the skin of a nude mouse
Source text: All employed solutions are saturated.
The given values are average values which were obtained with saturated solutions.
Saturated solutions were used to achieve the respective maximal thermodynamic activities.

[5] = cited from earlier work
[6] = diffusion cell, cited from earlier work

Compound: Cc1nccn1CC1CCc2c(c3ccccc3n2C)C1=O (racemic) [ondansetron, (±)-1,2,3,9-tetrahydro-9-methy-3-[(2-methyl-1H-imidazole-1-yl)methyl]-4H-carbazol-4-one monohydrochloride]
part of a radioactively marked dose found in urine [1]: approximately 5% | bioavailability [2]: approximately 50% | average half-life ([3]; age group 19-40 years): 3.5 h | peak concentration in plasma ([3]; age group 19-40 years): 102 ng/mL | plasma clearance ([3]; age group 19-40 years): 6.33 mL/min/kg | average half-life ([3]; age group 61-74 years): 4.7 h | plasma clearance ([3]; age group 61-74 years): 5.33 mL/min/kg | average half-life ([3]; age group ≧75 years): 5.5 h | plasma clearance ([3]; age group ≧75 years): 4.33 mL/min/kg | treatment of nausea and emesis (nausea and emesis; patients treated with anti-tumor drugs such as cisplatin derivatives): reliable in treating nausea and emesis | side effects (nausea and emesis; patients): headaches, diarrhea, and temporary abnormalities in liver function tests

amount permeated relative to a saturated aqueous solution ([4]; mixture of ethanol, tea tree oil and water vs saturated aqueous solution, after 24 hours): approximately 12 times | permeation through the skin (FIG. 1) ([4]; saturated solution in ethanol): best permeation | permeation through the skin (FIG. 1) ([4]; saturated solution in tea tree oil alone): insufficient permeation | amount permeated ([4]; solution in a mixture of ethanol, tea tree oil and water, after 24 hours): approximately 1.2 mg per cm^2 | flow of the active agent (FIG. 2) ([4]; solution in a mixture of ethanol, tea tree oil and water, first 4 to 5 hours): extremely strong increase
Compound: Cc1nccn1CC1CCc2c(c3ccccc3n2C)C1=O (centres unmarked) [ondansetron hydrochloride]
permeation compared with the free base ([4]; in combination with the described solvent mixture): permeates better than ondansetron in the form of the free, non-ionic base | permeation through the skin (FIG. 2) ([4]; saturated aqueous solution): the results do not differ from those which were obtained using pure tea tree oil | time until peak concentrations are present in the plasma ([5]; after oral administration): Approximately 1 hour | average elimination half-life ([5]; healthy test persons): 3.5 h | average elimination half-life ([5]; older patients): approximately 7.9 hours

Compound: Cc1cccc(CN2CCN(C)C[C@@H](NC(=O)c3n[nH]c4ccccc34)C2)c1.Cl.Cl [(R)-(−)-N-(1-methyl-4-(3-methylbenzyl)hexahydro-1H-1,4-diazepin-6-yl)-1H-indazole-3-carboxamided.2HCl]
flow of the active agent through the human epidermis ([6]; adhesive matrix of styrene-butadiene copolymer used as a comparison): 0.8 μg/cm^2/h | flow of the active agent through the human epidermis ([6]; two-phase matrix with 4 % active agent, calcium silicate, dimethyl siloxane adhesive (WO 9407468)): 17.1 μg/cm^2/h
